A short description of data set [1]: Octanol-water distribution coefficient (logD7.4). The following applies: octanol/water, pH 7.4.
Data set [2] in a line: PAMPA passive permeability.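 Further: passive permeability across an artificial membrane in 96-well pre-coated PAMPA plates, which lack transporters and efflux systems.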 It counts as in vitro ADME.
Description: Encouraged by this, the passive permeability of the analogs was evaluated using an artificial membrane (PAMPA), which measures permeability of compounds in the absence of transporters and efflux systems[32].
96-well BD Corning® pre-coated PAMPA plates were used following the supplier’s protocol, details in Supplementary Information.
Data set [3] relates to human liver microsomes.
Description: (§1) A stability assessment of the peptides was done in simulated gastric (SGF) and intestinal (SIF) fluids and human liver microsomes. The degradation kinetics of the aliquoted samples at desired time points were analyzed through RP-HPLC.
Data set [4] can be described thus: physchem. The following applies: pH 7.4.
Data set [5] can be described thus: in vitro. Particulars: both, human, plasma.
Description: Blood was freshly drawn from three healthy adults, two male and one person of 26–28 year old. […] The plasma was separated by centrifugation. […] For checking metabolic stability, the required volume of plasma was pre-incubated at 37 °C prior to the experiment for 2 min, followed by spiking with the peptides. At different time points, plasma was aliquoted. The supernatant was separated and used for RP-HPLC quantification. Rapid Equilibrium Dialysis (RED) assay was performed to assess the plasma protein binding of the peptides following the supplier’s protocol.
Data set [6] has as its target pepsin (Sus scrofa, UniProt P00791). As to the kind of experiment: in vitro. The following applies: simulated gastric fluid, pH 1.2.
Description: as §1
Data set [7] in a line: in vitro. Particulars: pig, simulated intestinal fluid.
Data set [8] is described as follows: in vitro. The following applies: human, microsomes.
Description: as §1
Data set [9] is described as follows: in vitro. Particulars: both, human, plasma. This is another data set of the same source.
The format of data set [10] is physicochemical.

Non-standard residues stand in square brackets, D forms with d. Residues, ends and D or L forms follow the SMILES beside them. NMeY = CN[C@@H](Cc1ccc(O)cc1)C(=O)O; NMeL = CN[C@@H](CC(C)C)C(=O)O; dNMeL = CN[C@H](CC(C)C)C(=O)O

Sequence of pepsin (P00791 60-385): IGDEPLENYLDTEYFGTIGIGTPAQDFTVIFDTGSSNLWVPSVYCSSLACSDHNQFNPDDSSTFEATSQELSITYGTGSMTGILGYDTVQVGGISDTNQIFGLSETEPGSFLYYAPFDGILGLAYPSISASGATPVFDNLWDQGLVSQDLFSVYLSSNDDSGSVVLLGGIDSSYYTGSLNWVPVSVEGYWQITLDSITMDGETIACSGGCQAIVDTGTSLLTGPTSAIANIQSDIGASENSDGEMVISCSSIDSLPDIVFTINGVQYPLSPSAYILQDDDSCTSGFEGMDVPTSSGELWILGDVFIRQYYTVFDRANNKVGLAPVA

The term logD denotes the decadic logarithm of the distribution of all forms, ionised or not, between an organic phase and buffer at a given pH. A higher logD goes with higher lipophilicity. In the case of `C[C@@H]1NC(=O)[C@H](C)NC(=O)[C@@H](C)NC(=O)[C@H](C)NC(=S)[C@H](C)NC(=O)[C@H](C)NC1=O` [9e], the logD in [1] was -0.54.

As to `C[C@@H]1NC(=O)[C@H](C)NC(=O)[C@H](C)NC(=O)[C@@H](C)NC(=S)[C@H](C)NC(=O)[C@H](C)NC1=O` [9f], the pH-dependent lipophilicity (logD) in data set [1] is -0.24.

By Papp is commonly meant a coefficient for how fast a substance crosses the barrier. Lower therefore signals poor permeation. As usually defined, the fraction unbound is the share of the substance not bound to proteins or other matrix. Low readings indicate extensive binding, high ones weak binding. The half-life is the time in which the quantity being followed falls by half. Broadly, the fraction remaining is the share of the starting amount still present when the sample was taken. A high value points to less turnover. Usually microsomal CLint stands for a measure of how fast metabolising enzymes remove a compound, apart from limits set by blood flow. In data set [2] (Pe Avg), `CC(C)C[C@@H]1NC(=O)[C@@H](CC(C)C)N(C)C(=O)[C@H](CC(C)C)NC(=O)[C@H](Cc2ccc(O)cc2)NC(=O)[C@H]2CCCN2C(=O)[C@H](CC(C)C)NC1=O` [10g] (cyclo(LL[dP]YL[dNMeL])) showed a Papp of 2.75 ×10⁻⁶ cm/s. The molecule also came in with a Half lives in [3] of 16.8. The molecule also registered a logD in [4] of 1.01. This molecule also gave a fraction unbound in data set [5] of 0.35. In data set [6], this molecule showed a half-life of 0.325 h, an amount remaining at 2 min of 85%, a fraction remaining at 10 min of 65% and a fraction remaining at 20 min of 45%. In [6], the share remaining at 0.5 h was 38%, the amount remaining at 1 h was 24%, the fraction remaining at 2 h is 9% and the share remaining at 4 h is 0%. For the same molecule, in data set [6], the amount remaining at 8 h is 0% and the share remaining at 12 h was 0%. Besides, in data set [7], the half-life is 0.333 h, the share remaining at 10 min is 67%, the amount remaining at 0.5 h is 41% and the share remaining at 1 h is 22%. For the same molecule, in [7], the fraction remaining at 2 h was 10%, the fraction remaining at 4 h is 0%, the share remaining at 8 h is 0% and the fraction remaining at 12 h is 0%. Moreover, in data set [8], the microsomal CLint amounted to 83 µL/min/mg, the share remaining at 2 min came to 89%, the fraction remaining at 10 min was found to be 67% and the amount remaining at 20 min stood at 41%. In data set [8], the share remaining at 0.5 h stood at 25%, the share remaining at 0.75 h stood at 16% and the share remaining at 1 h turned out to be 8%. In data set [9], this molecule showed a half-life of 15 h, a fraction remaining at 2 h of 92%, a share remaining at 4 h of 83% and a fraction remaining at 8 h of 69%. Further, in data set [9], the fraction remaining at 16 h came out at 51%, the share remaining at 24 h turned out to be 28%, the share remaining at 48 h worked out at 22% and the amount remaining at 72 h was found to be 13%.

In turn, `CC(C)C[C@@H]1NC(=O)[C@H](Cc2ccc(O)cc2)NC(=O)[C@H]2CCCN2C(=O)[C@H](CC(C)C)N(C)C(=O)[C@H](CC(C)C)NC(=O)[C@@H](CC(C)C)NC1=O` [10i] (cyclo(L[NMeL][dP]YL[dL])) had a Papp in [2] (Pe Avg) of 3.2 ×10⁻⁶ cm/s. The Half lives in data set [3] was determined as 12.6. In addition, the logD in data set [4] amounted to 1.11. In addition, the fraction unbound in [5] is 0.38. In data set [6], this molecule came in with a half-life of 0.292 h, a share remaining at 2 min of 86%, an amount remaining at 10 min of 58% and an amount remaining at 20 min of 47%. In data set [6], this molecule came in with an amount remaining at 0.5 h of 30%, a fraction remaining at 1 h of 17%, a fraction remaining at 2 h of 11% and a share remaining at 4 h of 5%. In data set [6], this molecule yielded a share remaining at 8 h of 2.5% and an amount remaining at 12 h of 1%. In data set [7], this molecule showed a half-life of 1.83 h, an amount remaining at 10 min of 90%, a share remaining at 0.5 h of 81% and a fraction remaining at 1 h of 68%. In [7], the amount remaining at 2 h is 46%, the share remaining at 4 h was 32%, the share remaining at 8 h is 6% and the fraction remaining at 12 h is 3%. In data set [8], this molecule registered an intrinsic metabolic clearance (microsomal CLint) of 113 µL/min/mg, a fraction remaining at 2 min of 93%, an amount remaining at 10 min of 54% and a fraction remaining at 20 min of 53%. In data set [8], the amount remaining at 0.5 h came to 19%, the fraction remaining at 0.75 h was 12% and the share remaining at 1 h came to 2.73%. Further, in data set [9], the half-life is 19 h, the share remaining at 2 h came out at 92%, the fraction remaining at 4 h stood at 83% and the fraction remaining at 8 h is 74%. Further, in [9], the share remaining at 16 h worked out at 58%, the share remaining at 24 h is 38%, the share remaining at 48 h was 26% and the fraction remaining at 72 h is 4%.

As for `CC(C)C[C@@H]1NC(=O)[C@@H](CC(C)C)NC(=O)[C@H](CC(C)C)NC(=O)[C@H](Cc2ccc(O)cc2)N(C)C(=O)[C@H]2CCCN2C(=O)[C@H](CC(C)C)NC1=O` [10j] (cyclo(LL[dP][NMeY]L[dL])), in [2] (Pe Avg), the Papp is 4.59 ×10⁻⁶ cm/s. Further, the Half lives in [3] is reported as 28.7. Moreover, in data set [4], the logD came out at 0.98. Besides, in data set [5], the fraction unbound is 0.21. Moreover, in [6], the half-life was 0.367 h, the amount remaining at 2 min was 86%, the amount remaining at 10 min is 78% and the amount remaining at 20 min is 59%. In data set [6], this molecule yielded a fraction remaining at 0.5 h of 32%, a share remaining at 1 h of 10%, an amount remaining at 2 h of 1% and an amount remaining at 4 h of 0%. In data set [6], this molecule showed a share remaining at 8 h of 0% and an amount remaining at 12 h of 0%. In data set [7], this molecule gave a half-life of 0.583 h, a share remaining at 10 min of 70%, a fraction remaining at 0.5 h of 58% and an amount remaining at 1 h of 38%. In data set [7], the share remaining at 2 h was 21%, the fraction remaining at 4 h is 4.54%, the fraction remaining at 8 h was 0.525% and the share remaining at 12 h is 0%. Also, in data set [8], the microsomal CLint turned out to be 49 µL/min/mg, the share remaining at 2 min was found to be 91%, the share remaining at 10 min was found to be 77% and the amount remaining at 20 min came to 73%. In [8], this molecule returned an amount remaining at 0.5 h of 46%, a fraction remaining at 0.75 h of 35% and a fraction remaining at 1 h of 9%. Moreover, in [9], the half-life was 11 h, the fraction remaining at 2 h was found to be 75%, the share remaining at 4 h worked out at 61% and the share remaining at 8 h was found to be 56%. Also, in data set [9], the amount remaining at 16 h came to 38%, the fraction remaining at 24 h came out at 25%, the fraction remaining at 48 h was determined as 9% and the amount remaining at 72 h worked out at 4%.

In the case of `C[C@@H](O)[C@@H]1NC(=O)[C@H](CCCCN)NC(=O)[C@@H](Cc2c[nH]c3ccccc23)NC(=S)[C@H](Cc2ccccc2)NC(=O)[C@@H]2CCCN2C(=O)[C@H](Cc2ccccc2)NC1=O` [13f], in data set [2] (Pe), the Papp was determined as 1.51 ×10⁻⁶ cm/s. In data set [10], the logD heptane ethylene glycol was -0.91. The logD in data set [4] is -0.93. The molecule also had a free fraction (fraction unbound) in [5] of 0.05. In data set [9], the half-life was 16 h.

`C[C@@H]1NC(=O)[C@H](C)NC(=O)[C@H](C)NC(=O)[C@@H](C)NC(=O)[C@H](C)NC1=O` [compound 8, cyclo(-D-Ala-L-Ala4-)] showed a logD in [1] of -1.46.

Turning to `C[C@@H]1NC(=O)[C@H](C)NC(=O)[C@H](C)NC(=O)[C@@H](C)NC(=O)[C@H](C)NC(=O)[C@H](C)NC1=O` [compound 9, cyclo(-D-Ala-L-Ala5-)], the logD in [1] was -2.48.

(Values after paper PMC10539501 (Nature Communications, 2023).)
